Assay results published in ChEMBL document CHEMBL1159305, “Vidalenolone, a novel phenolic metabolite from the tropical red alga Vidalia sp” (J Nat Prod, 2002).
The source made the active and inactive calls.

Columns and labels:
[1] = molecular target: Tyrosine-protein kinase ABL1 (Homo sapiens) (UniProt P00519); experiment: Inhibition of GST-tagged human recombinant full length Abl SH2 domain expressed in Escherichia coli […] binding to biotinylated phosphotyrosine-containing peptide by ELISA
[2] = molecular target: Growth factor receptor-bound protein 2 (Homo sapiens) (UniProt P62993); experiment: Inhibition of GST-tagged human recombinant full length Grb2 SH2 domain expressed in Escherichia coli […] binding to biotinylated phosphotyrosine-containing peptide by ELISA
Sequence of Growth factor receptor-bound protein 2 (Homo sapiens) (P62993 whole entry, looked up, the tested form may be a part): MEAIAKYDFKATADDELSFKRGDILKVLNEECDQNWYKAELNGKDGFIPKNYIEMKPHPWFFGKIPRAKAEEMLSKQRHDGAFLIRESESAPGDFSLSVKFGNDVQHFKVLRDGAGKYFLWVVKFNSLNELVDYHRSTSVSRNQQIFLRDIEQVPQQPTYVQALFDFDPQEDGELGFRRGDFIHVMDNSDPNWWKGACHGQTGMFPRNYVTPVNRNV

[3] = molecular target: Tyrosine-protein kinase Fyn (Homo sapiens) (UniProt P06241); experiment: Inhibition of GST-tagged human recombinant full length Fyn SH2 domain expressed in Escherichia coli […] binding to biotinylated phosphotyrosine-containing peptide by ELISA
Sequence of Tyrosine-protein kinase Fyn (Homo sapiens) (P06241 2-537 limits assumed): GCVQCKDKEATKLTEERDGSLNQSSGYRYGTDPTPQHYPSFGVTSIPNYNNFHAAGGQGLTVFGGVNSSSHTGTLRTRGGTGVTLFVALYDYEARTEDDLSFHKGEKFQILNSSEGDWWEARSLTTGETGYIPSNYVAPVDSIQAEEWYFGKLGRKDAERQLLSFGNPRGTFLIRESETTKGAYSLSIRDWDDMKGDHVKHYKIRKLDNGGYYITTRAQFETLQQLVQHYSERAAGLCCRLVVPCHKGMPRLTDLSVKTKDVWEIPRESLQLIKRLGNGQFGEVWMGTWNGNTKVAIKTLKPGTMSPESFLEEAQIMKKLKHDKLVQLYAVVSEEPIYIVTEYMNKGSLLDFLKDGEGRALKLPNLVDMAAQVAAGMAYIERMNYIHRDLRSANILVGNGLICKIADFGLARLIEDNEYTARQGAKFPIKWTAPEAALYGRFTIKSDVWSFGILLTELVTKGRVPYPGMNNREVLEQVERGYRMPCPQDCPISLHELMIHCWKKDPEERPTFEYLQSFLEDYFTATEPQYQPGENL

[4] = molecular target: Adapter molecule crk (Homo sapiens) (UniProt P46108); experiment: Inhibition of GST-tagged human recombinant full length Crk SH2 domain expressed in Escherichia coli […] binding to biotinylated phosphotyrosine-containing peptide by ELISA
Sequence of Adapter molecule crk (Homo sapiens) (P46108 whole entry, the tested form may be a part): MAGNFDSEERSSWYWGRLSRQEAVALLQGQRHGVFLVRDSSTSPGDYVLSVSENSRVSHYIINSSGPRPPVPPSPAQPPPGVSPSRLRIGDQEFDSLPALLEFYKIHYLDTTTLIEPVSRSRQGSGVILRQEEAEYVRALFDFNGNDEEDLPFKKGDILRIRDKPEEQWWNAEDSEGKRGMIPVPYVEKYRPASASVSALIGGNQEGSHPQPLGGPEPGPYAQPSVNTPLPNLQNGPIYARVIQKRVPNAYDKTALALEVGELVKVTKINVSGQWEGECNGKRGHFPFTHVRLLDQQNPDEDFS

Measured: Activity

Sequence of Tyrosine-protein kinase ABL1 (Homo sapiens) (P00519 whole entry, the tested form may be a part): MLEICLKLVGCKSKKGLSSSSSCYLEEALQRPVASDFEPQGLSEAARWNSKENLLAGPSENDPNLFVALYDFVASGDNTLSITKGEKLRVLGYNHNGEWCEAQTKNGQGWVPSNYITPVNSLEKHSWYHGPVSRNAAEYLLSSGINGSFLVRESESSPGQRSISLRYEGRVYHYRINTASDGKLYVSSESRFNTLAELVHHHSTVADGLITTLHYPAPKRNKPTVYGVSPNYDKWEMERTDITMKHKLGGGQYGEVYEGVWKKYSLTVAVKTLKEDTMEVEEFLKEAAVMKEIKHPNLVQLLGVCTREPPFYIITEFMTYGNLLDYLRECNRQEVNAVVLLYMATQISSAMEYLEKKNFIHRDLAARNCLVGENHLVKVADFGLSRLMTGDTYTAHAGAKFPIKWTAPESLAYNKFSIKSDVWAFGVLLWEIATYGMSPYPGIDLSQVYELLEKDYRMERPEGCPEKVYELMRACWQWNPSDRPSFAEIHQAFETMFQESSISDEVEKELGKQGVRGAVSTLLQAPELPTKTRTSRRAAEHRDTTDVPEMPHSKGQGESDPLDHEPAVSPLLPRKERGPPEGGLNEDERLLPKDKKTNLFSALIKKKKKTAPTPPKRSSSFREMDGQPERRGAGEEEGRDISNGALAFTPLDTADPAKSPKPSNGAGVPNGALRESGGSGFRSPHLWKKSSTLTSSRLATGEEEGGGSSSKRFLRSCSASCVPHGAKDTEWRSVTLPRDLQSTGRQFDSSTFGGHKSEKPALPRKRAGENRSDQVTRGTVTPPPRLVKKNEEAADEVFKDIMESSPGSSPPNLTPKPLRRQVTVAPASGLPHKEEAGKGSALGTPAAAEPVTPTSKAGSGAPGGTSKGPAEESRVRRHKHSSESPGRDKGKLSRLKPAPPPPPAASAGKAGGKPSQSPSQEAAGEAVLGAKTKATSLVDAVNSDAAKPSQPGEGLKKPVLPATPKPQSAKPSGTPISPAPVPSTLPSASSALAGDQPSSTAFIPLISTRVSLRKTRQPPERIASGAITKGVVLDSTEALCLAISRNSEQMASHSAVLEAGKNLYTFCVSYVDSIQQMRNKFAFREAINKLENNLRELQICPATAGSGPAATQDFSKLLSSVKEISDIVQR

CCOCc1cc(O)c(O)c(Br)c1Br
inactive: [1] | [2] | [3] | [4]

COC1(Cc2ccc(O)cc2)CC=C(O)C1=O (configuration not stated)
inactive: [1] | [2] | [3] | [4]

OCc1ccc(O)cc1
inactive: [1] | [2] | [3] | [4]
